Assay results published in patent US20160067248A1, “COMBINATIONS” (GlaxoSmithKline Intellectual Property Development Limited, priority 2011, published 2016).

Columns and labels:
[1] = target: T1, FAK phosphorylation at Y397 (pFAK^Y397) (Homo sapiens, UniProt Q05397); test: FAK phosphorylation at Y397 (pFAK Y397) in ovarian cancer cells; assay type: cell-based
T1 construct: endogenous in cells; host or cells: SKOV3-IP1 and HeyA8 cells

SKOV3-IP1 cells [2] = test: Invasion of SKOV3-IP1 cells; assay type: cell-based, human; conditions: p<0.001
SKOV3-IP1 cells [3] = test: Migration of SKOV3-IP1 cells; assay type: cell-based, human; conditions: p<0.001
[4] = tested on: SKOV3-Ip1 / HeyA8 tumor xenograft; test: Combination study, intraperitoneal ovarian tumor xenograft models in nude mice; assay type: in vivo; conditions: pazopanib 100 mg/kg oral daily
Method: Tumor cells were injected intraperitoneally into nude mice. For the first study, mice were inoculated with 1,000,000 SKOV3-Ip1 cells. For the second study, mice were inoculated with 250,000 HeyA8 cells. At the time of inoculation, mice were randomized into groups to be treated by oral gavage and intraperitoneal injection. The animals were grouped as described below. The criteria for end point was animals in any group being moribund. At the time of dissection, animals were sacrificed by cervical dislocation and necropsy immediately performed. Tumor nodules were counted and aggregate tumor weight (g) was recorded. Tumors were fixed in 10% formalin, and fresh tumor was flash-frozen for future analysis.
The goal of this study was to determine the in vivo effects of each of pazopanib, the FAK inhibitor, and docetaxel, alone and in combinations. Nude mice were inoculated with tumor as described above and randomized to the groups below. The following doses of each inhibitor were used: FAK-inhibitor, 75 mg/kg, oral, daily; pazopanib, 100 mg/kg, oral, daily; docetaxel, 35 ug, IP, weekly. […] Tumor nodules were counted and aggregate tumor weight (g) was recorded. […]
In vitro dose-response, in vivo tumor growth and scoring of the immunohistochemistry are presented as mean±Standard Error. Statistical significance was assessed by student's T-test and P≦0.05 was considered to be significant. […]

T1 sequence (Q05397 whole entry): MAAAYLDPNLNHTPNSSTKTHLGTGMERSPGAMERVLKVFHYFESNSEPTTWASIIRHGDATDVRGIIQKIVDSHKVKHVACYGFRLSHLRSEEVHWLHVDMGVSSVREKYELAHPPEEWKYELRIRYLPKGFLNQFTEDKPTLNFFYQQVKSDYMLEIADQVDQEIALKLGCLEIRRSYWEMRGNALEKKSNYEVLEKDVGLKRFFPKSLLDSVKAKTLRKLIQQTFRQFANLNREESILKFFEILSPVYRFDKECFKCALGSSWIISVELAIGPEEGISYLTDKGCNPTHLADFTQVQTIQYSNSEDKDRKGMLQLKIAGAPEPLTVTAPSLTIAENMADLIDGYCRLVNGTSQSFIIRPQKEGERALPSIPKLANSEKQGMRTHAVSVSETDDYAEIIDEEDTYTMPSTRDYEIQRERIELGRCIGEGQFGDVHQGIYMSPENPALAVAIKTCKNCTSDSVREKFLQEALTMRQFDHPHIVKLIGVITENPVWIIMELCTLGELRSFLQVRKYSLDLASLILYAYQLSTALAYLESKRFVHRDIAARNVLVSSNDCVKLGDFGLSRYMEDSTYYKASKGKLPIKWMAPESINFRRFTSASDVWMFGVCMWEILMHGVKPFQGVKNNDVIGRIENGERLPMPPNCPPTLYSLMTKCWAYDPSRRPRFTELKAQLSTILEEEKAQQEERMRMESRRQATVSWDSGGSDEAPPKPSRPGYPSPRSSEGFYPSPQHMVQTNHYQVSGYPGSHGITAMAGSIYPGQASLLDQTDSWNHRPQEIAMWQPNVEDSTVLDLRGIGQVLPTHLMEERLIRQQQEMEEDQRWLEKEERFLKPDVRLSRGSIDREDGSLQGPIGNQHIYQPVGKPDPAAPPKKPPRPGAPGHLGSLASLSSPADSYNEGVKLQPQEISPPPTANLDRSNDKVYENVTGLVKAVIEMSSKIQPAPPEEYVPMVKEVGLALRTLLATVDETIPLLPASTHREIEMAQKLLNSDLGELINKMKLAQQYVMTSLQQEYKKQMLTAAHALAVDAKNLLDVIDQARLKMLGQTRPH

Row | SMILES | levels of FAK phosphorylation at Y397 (pFAK^Y397) ([1]; HeyA8 cells, 10 μM) | levels of FAK phosphorylation at Y397 (pFAK^Y397) ([1]; SKOV3-IP1 cells, 1 μM concentration) | reduction in invasion (SKOV3-IP1 cells [2]) [%] | reduction in migration (SKOV3-IP1 cells [3]) [%] | decrease in mean tumor weight compared to control ([4]; nude mice, i.p. tumor, FAK-inhibitor 75 mg/kg oral daily, docetaxel 35 ug IP weekly) [%] | decrease of MVD ([4]; p<0.01) [%]
1 | CONC(=O)c1ccccc1Nc1cc(Nc2cc(C)nn2C(C)C)ncc1Cl [FAK-inhibitor, 2-[(5-chloro-2-[[3-methyl-1-(1-methylethyl)-1H-pyrazol-5-yl]amino]-4-pyridinyl)amino]-N-methoxybenzamide] | reduced levels | reduced levels | 12.5 | 54 | 58 | –
2 | Cc1ccc(Nc2nccc(N(C)c3ccc4c(C)n(C)nc4c3)n2)cc1S(N)(=O)=O [pazopanib, 5-[[4-[(2,3-dimethyl-2H-indazol-6-yl)methylamino]-2-pyrimidinyl]amino]-2-methylbenzenesulfonamide, reference compound] | – | – | – | – | – | 49
